Experimental data reported in patent US6673937B2, “Syntheses and methods of use of new antimitotic agents” (The University of Pittsburgh, priority 2000, dated 2004).

Experiments:
Cdk1 = molecular target: T1, Cdk1 (Homo sapiens, UniProt P06493); assay: Cdk1 kinase activity assay (histone H1 phosphorylation); format: biochemical; conditions: immunoprecipitate from MCF-7 cells, 20 min
T1 construct: Lysates from asynchronous MCF-7 cells were immunoprecipitated with anti Cdk1 antibody coupled to agarose; endogenous in cells; host or cells: MCF-7 human breast cancer cells (immunoprecipitate)
Experimental: tsFT210 cells were harvested using the same procedure for cell synchronizing and drug exposure as described above for the G2/M flow cytometric analysis. The protein lysates were analyzed by Western blotting for Cdk1 as described previously (Tamura K, Southwick EC, Kerns J, Rosi K, Carr BI, Wilcox C and Lazo JS (2000) Cdc25 inhibition and cell cycle arrest by a synthetic thioalkyl vitamin K analogue. Cancer Res 60:1317-1325.). The inventors used Cdk1 isolated from human MCF-7 cells to assay for in vitro inhibition of enzyme activity because of available antibodies and convenience. Asynchronous cells grown at 37° C. in 5% CO2 in DMEM containing 10% fetal bovine serum were treated with lysis buffer and harvested as previously described (Vogt A, Wang AS, Johnson CS, Fabisiak JP, Wipf P and Lazo JS (2000) In vivo antitumor activity and induction of insulin-like growth factor-1 resistant apoptosis by SC-ααδ9. J Pharmacol Exptl Therap 292:530-537.). […] Histone H1 was separated from other proteins by SDS-PAGE and analyzed for incorporation of radioactive phosphate with a Molecular Dynamics STORM 860 Phospholmager (Sunnyvale, CA). […]

bovine brain tubulin = assay: Inhibition of [3H]colchicine binding; conditions: 5 μM compound; Mean ± SEM, N = 9
Experimental: Using methods described previously (Verdier-Pinard P, Lai J-Y, Yoo H-D, Yu J, Marquez B, Nagle DG, Nambu M, White JD, Falck JR, Gerwick WH, Day BW and Hamel E (1998) Structure-activity analysis of the interaction of curacin A, the potent colchicine site antimitotic agent, with tubulin and effects of analogs on the growth of MCF-7 breast cancer cells. Mol Phannacol 53:62-76.). 5,μM [^3H]colchicine was incubated with either 5% DMSO vehicle or compound (5 or 50 μM) at 37° C. for 15 min with 1 μM tubulin in the presence of 1 M monosodium glutamate, 0.1 M glucose-1-phosphate, 1 mM MgCl2, 1 mM GTP and 0.5 mg/ml bovine serum albumin. The solutions were filtered through two stacks of DEAE-cellulose filters and the radioactivity in the filtrate was determined by liquid scintillation spectrometry. Each series of determinations included positive controls of 5 and 50 μM curacin A. The inventors found no evidence that SR-7 could bind to the colchicine site of tubulin. […] The inventors propose that SR-7 may act at another site such as the previously characterized vinca alkaloid site.

Bcl-2 = Bcl-2 phosphorylation immunoblot in MCF-7 cells; format: cell-based, human; conditions: 3 or 10 μM
From the text: Attempts to determine the phosphorylation status of Bcl-2 in tsFT210 cells using two different antibodies were unsuccessful due to the antibodies' inability to detect mouse Bcl-2 or the lack of specificity. Therefore, phosphorylated and non-phosphorylated Bcl-2 was detected in lysates from human MCF-7 cells (American Type Culture Collection, Manassas, Va.) treated with microtubule perturbing agents. Equal amounts of protein were separated by electrophoresis on 15% SDS-PAGE followed by immunoblotting with an antihuman Bcl-2 antibody (sc-509, Santa Cruz Biotechnology). Positive antibody reactions were visualized using peroxidase-conjugated secondary antibodies (Jackson ImmunoResearch, West Grove, Pa.) and an enhanced chemiluminescence detection system (Renaissance, NEN, Boston, Mass.) according to manufacturer's instructions.
All known microtubule disrupting compounds cause hyperphosphorylation of the antiapoptotic protein Bcl-2 (Haldar S, Jena N and Croce CM (1995) Inactivation of bcl-2 by phospliorylation. Proc Natl Acad Sci USA 92:4507-4511 and Basu A and Haldar S (1998) Microtubule-damaging drugs trigger bcl2 phosphorylation-requirement of phosphorylation on both serine-70 and serine-87 residues of bcl2 protein. Intl J Oncol 13:659-664). Therefore, the phosphorylation status of Bcl-2 in cells treated with various compounds including SR-7 was examined and the results are illustrated in FIG. 29. Proteins from lysates of MCF-7 cells treated with 0.5 μM paclitaxel, 1 μM nocodozole, 1,μM vincristine and, 3 or 10 μM SR-7 were separated by electrophoresis on 15% SDS-PAGE followed by immunoblotting with an antibody to Bcl-2. The phosphorylated form of Bcl-2 (P) appeared as the upper bands and the underphosphorylated form (U) was the lower band.

T1 sequence (P06493 whole entry): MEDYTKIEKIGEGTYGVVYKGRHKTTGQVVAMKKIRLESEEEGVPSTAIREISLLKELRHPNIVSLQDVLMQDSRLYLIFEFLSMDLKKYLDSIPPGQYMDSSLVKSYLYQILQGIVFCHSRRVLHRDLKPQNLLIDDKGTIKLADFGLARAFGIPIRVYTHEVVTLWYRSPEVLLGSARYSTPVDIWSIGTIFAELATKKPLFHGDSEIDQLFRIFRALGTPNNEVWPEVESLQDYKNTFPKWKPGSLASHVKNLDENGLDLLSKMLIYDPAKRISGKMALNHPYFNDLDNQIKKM
T1 sequence (P14635 whole entry partner): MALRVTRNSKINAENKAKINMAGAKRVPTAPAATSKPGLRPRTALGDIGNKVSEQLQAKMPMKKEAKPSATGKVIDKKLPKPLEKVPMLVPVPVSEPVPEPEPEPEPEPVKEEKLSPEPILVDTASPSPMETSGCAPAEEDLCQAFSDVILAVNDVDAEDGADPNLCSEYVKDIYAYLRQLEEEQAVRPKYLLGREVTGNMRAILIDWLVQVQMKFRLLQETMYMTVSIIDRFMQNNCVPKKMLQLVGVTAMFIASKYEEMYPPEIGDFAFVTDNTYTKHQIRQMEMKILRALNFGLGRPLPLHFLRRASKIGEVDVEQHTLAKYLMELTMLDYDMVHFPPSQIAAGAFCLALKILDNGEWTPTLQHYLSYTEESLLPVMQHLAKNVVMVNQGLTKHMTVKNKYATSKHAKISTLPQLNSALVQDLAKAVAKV

## O=C1C=CC2(Oc3cccc4cccc(c34)O2)c2cccc(OCc3ccco3)c21 [SR-7, 8-(furan-2-ylmethoxy)-1-oxo-1,4-dihydronaphthalene-4-spiro-2′-naphto [1″,8″-de][1′,3′] dioxin]
Cdk1
  direct inhibition of Cdk1 kinase activity: not directly inhibited
Bovine brain tubulin
  Percent inhibition of [3H]colchicine binding: 1.5 ± 0.5%
Bcl-2
  Bcl-2 phosphorylation: failed to generate significant hyperphosphorylated Bcl-2
